Test results as given in patent US7285282B2, “Mucin peptide with immunoenhancing properties” (University of Miami, priority 2001, dated 2007).
Where no end group is shown, it is not given here.

Columns and labels:
YAC-1 = assay: NK cell assay, splenocytes pretreated with IEP, YAC-1 targets; assay type: cell-based, BALB/c mice; details: 10 μg IEP, 30-45 minutes pretreatment, 4-hour assay, FIG. 18
Source text: As mentioned above, there is a unique 11 amino acid peptide present on the C-terminus of the MUC1/sec protein, but not on the MUC1/TM protein. […] We investigated the possible effects of the peptide on the cytotoxicity reaction. We tested it on yet another tumor model, i.e. the D1-DMBA-3 mammary tumor bearing mice. The DA-3 cell line was originally derived from this tumor, which is routinely passaged in vivo in our laboratory in the syngeneic BALB/c mice. […] The ability of this peptide to stimulate immune cells in a NK cell assay was tested. […] Therefore, to test for immunomodulatory activity of the immunoenhancing peptide (IEP), BALB/c splenocytes were pretreated for 30-45 minutes with 10 μg IEP and subsequently, chromium-labeled YAC-1 or EL-4 targets were added in a 4-hour assay as previously described (11).

DA-3/sec tumor targets = assay: Splenocyte cytotoxicity against DA-3/sec targets after in vitro MUC1/sec peptide; assay type: cell-based; details: peptide added in vitro for 5 days to splenocytes of normal and D1-DMBA-3 tumor bearing mice, FIG. 17
[1] = Toxicity in animals injected with the peptide; details: in vivo
DA-3/sec targets = assay: Effect of perforin inhibitor or anti-Fas antibody on killing by DA-3/sec primed splenocytes; assay type: cell-based, mice; details: FIG. 14, FIG. 15

Molecule: VSIGLSFPMLP [IEP]
- Cytotoxicity of normal splenocytes against YAC-1 (YAC-1): elevation of cytotoxic levels
- Cytotoxicity against DA-3/sec tumor targets (DA-3/sec tumor targets): significant levels of cytotoxicity
- Toxicity in injected animals [1]: No toxicity has been detected

Molecule: C/C=C/[C@H]1O[C@@](O)([C@@H](C)[C@H](O)[C@H](C)[C@H]2OC(=O)/C(OC)=C/C(C)=C/[C@@H](C)[C@@H](O)[C@@H](CC)[C@@H](O)[C@H](C)C/C(C)=C/C=C/[C@@H]2OC)C[C@@H](O[C@H]2C[C@@H](O)[C@H](OC(N)=O)[C@@H](C)O2)[C@@H]1C [Concanamycin A]
- Effect on killing of DA-3/sec targets by primed splenocytes (DA-3/sec targets): effectively blocked killing of DA-3/sec targets in a dose-dependent manner
